{"source": "paper PMC4369398", "about": "(Journal of colloid and interface science, 2014)", "key": {"CD73": {"molecular_target": "T1, CD73 (Homo sapiens, UniProt P21589)", "T1 sequence (P21589 27-574)": "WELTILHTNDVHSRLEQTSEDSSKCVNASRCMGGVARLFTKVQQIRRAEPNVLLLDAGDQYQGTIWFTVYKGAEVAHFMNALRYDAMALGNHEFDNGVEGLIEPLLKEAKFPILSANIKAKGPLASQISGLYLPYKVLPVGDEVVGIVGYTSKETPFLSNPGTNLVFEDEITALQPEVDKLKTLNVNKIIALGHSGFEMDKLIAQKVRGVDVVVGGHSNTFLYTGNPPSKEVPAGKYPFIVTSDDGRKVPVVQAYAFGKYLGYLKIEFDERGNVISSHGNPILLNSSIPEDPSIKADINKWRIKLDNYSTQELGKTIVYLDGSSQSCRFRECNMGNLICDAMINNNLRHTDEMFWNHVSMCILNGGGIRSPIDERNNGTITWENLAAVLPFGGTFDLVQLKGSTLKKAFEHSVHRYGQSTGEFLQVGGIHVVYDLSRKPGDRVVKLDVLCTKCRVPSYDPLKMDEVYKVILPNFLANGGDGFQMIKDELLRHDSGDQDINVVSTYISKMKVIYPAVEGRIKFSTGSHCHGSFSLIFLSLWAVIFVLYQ"}, "Self-assembly in water": {"assay": "Self-assembly in water", "assay_type": "physicochemical", "settings": "for diameter (width) of self-assembled nanofibers: TEM, pH 7.0, 2.0 wt %, direct self-assembly without enzyme; for appearance / state in water: pH 7.0, 2.0 wt % concentration, optical image, for 2 via pH adjustment"}}, "data": [{"smiles": "O=C(Cc1ccc2ccccc2c1)N[C@H](Cc1ccccc1)C(=O)N[C@H](Cc1ccccc1)C(=O)N[C@H](CCCCNc1ncnc2c1ncn2[C@@H]1O[C@H](COP(=O)(O)O)[C@@H](O)[C@H]1O)C(=O)O", "note": "[compound 1, naphthalene-D-Phe-D-Phe-D-Lys(AMP)]", "values": [{"measurement": "hydrogel formation on adding CD73", "setting": "CD73; 1 μg of CD73 added to 0.5 mL of 2 wt % solution, 37 °C, pH 7.0", "value": "hydrogel formation after three days"}, {"measurement": "diameter of nanofibers of the CD73-formed hydrogel", "setting": "CD73; TEM, after CD73 treatment, pH 7.0, 2.0 wt %", "value": "8 ± 1", "unit": "nm"}, {"measurement": "diameter (width) of self-assembled nanofibers", "setting": "Self-assembly in water", "value": "8 ± 1", "unit": "nm"}, {"measurement": "appearance / state in water", "setting": "Self-assembly in water", "value": "transparent solution"}]}, {"smiles": "O=C(Cc1ccc2ccccc2c1)N[C@H](Cc1ccccc1)C(=O)N[C@H](Cc1ccccc1)C(=O)N[C@H](CCCCNc1ncnc2c1ncn2[C@@H]1O[C@H](CO)[C@@H](O)[C@H]1O)C(=O)O", "note": "[compound 2, naphthalene-D-Phe-D-Phe-D-Lys(adenosine)]", "values": [{"measurement": "diameter (width) of self-assembled nanofibers", "setting": "Self-assembly in water", "value": "5 ± 1", "unit": "nm"}, {"measurement": "appearance / state in water", "setting": "Self-assembly in water", "value": "transparent hydrogel"}]}]}
